Common to all, as to format: in vivo, rat
One experiment has as its system PKC (α, β, γ and ε). The experiment can be described thus: Translocation of PKC isoforms α, β, γ and ε in particulate and cytosolic heart fractions (Western immunoblotting). Conditions: 24 h after GGA 200 mg/kg oral or vehicle; chelerythrine 5 mg/kg i.v. pretreatment, FIG. 10. (In general: In western blotting, separated proteins are transferred to a membrane and probed.)

Experiment [1] has as its system isolated perfused heart. The experiment in a line: Isolated perfused heart experiments (Langendorff, no-flow global ischemia/reperfusion), Example 1. Conditions: for amount of creatine kinase (CK) released during reperfusion versus Control Group: 30 min reperfusion, FIG. 6. How it is done:
As mentioned above, 24 hours after administration of 200 mg/kg of GGA or the vehicle, rats were heparinized (500 IU/kg, i.p.) and anesthetized with pentobarbital (50 mg/kg, i.p.).
Each heart was isolated and reperfused using the Langendorff method with Krebs-Henseleit buffer (pH 7.4, [in mM] 118 NaCl, 4.7 KCl, 2.5 CaCl2, 1.2 MgSO4, 1.2 KH2PO4, 25.0 Na2HCO3, 11.0 glucose) equilibrated with a 95% O2, 5% CO2 gas mixture at 36.5° C., 75 mmHg (1.0×10^4 Pa).
A water-filled latex balloon was inserted through the mitral orifice into the left ventricle, and the left ventricular end diastolic pressure (LVEDP) was adjusted to 0-5 mmHg (0-667 Pa). During the first 10 minutes of constant pressure reperfusion, the perfusion flow rate was determined for each heart, and the hearts were then perfused at a determined perfusion rate using a microtube pump, during which time each heart was covered with water-jacketed glassware and humidity was maintained at 90% or more.
Normothermic no-flow global ischemia was performed for 20, 40 and 60 minutes, followed by reperfusion for 30 minutes. The coronary effluent from the 30-minute reperfusion period was collected for measurement of released creatine kinase (CK). The ratio of released CK to heart weight was analyzed by unpaired t-test.
The peak position and negative first derivaties of left ventricular pressure (dP/dt max and dP/dt min) were monitored using a pressure transducer. Left ventricular developed pressure (LVDP) was defined as the difference between left ventricular systolic and diastolic pressure. Coronary perfusion pressure (CPP) was calculated as the hydraulic pressure measured at the level of aortic cannulation. Changes in LVDP, CPP and dP/dt were analyzed by two-way analysis of variance (ANOVA), followed by the Bonferroni/Dunn test.
The LVDP, CPP and electrocardiogram were continuously recorded on a polygraph recorder (WS-681G, Nihon Koden, Tokyo), and stored on a PCM data recorder (RD-111T, TEAC, Tokyo) for later analysis.

The test system of experiment [2] is isolated perfused heart. The experiment can be described thus: Isolated perfused heart experiments (Langendorff, 20 min no-flow global ischemia, 30 min reperfusion), Example 2. How it is done:
Male Sprague-Dawley rats (220-250 g) were used. GGA, as an emulsion with 5% gum arabic and 0.008% tocopherol, was given orally at a dose of 200 mg/kg. Rats were classified into 4 groups. FIG. 7 is a diagrammatic representation of experimental protocol. […] Twenty-four hours after oral administration of GGA or vehicle, rats were anesthetized (sodium pentobarbital, 50 mg/kg IP) and heparinized (500 IU/kg IP). Hearts were excised, immediately frozen in liquid nitrogen, and stored at −70° C. until use for Western blot analysis (n=4 for each group). To examine the cardiac function during ischemia and reperfusion, hearts of each group were prepared for isolated perfused experiments using Langendorff apparatus (n=7-9 for each group, FIG. 7).
Twenty-four hours after administration-of 200 mg/kg of GGA or vehicle, rats of 4 groups were heparinized (500 IU/kg, IP) and anesthetized with sodium pentobarbital (50 mg/kg, IP). Each heart was isolated and perfused retrogradely using the Langendorff method with Krebs-Henseleit buffer (pH 7.4, [in mM] 118 NaCl, 4.7 KCl, 2.5 CaCl2, 1.2 MgSO4, 1.2 KH2PO4, 25.0 Na2HCO3, 11.0 glucose) equilibrated with 95% O2-5% CO2 gas mixture at 36.5° C. at a constant pressure of 75 mm Hg. A water-filled latex balloon was inserted through the mitral orifice into the left ventricle (LV) and the LV end-diastolic pressure (LVEDP) was adjusted to 0-5 mm Hg. During the initial 10 min of constant pressure perfusion, the perfusion flow rate was determined for each heart, which was then perfused at a determined perfusion rate using a microtube pump while the heart was covered with water-jacketed glassware and the relative humidity maintained at 90% or more. Normothermic no-flow global ischemia was initiated for 20 min, followed by reperfusion for 30 min. The coronary effluent during the 30 min of reperfusion period was collected for measurement of creatine kinase content (released CK).
LV pressure was monitored using a pressure transducer to obtain the peak positive and negative first derivatives of LV pressure (dP/dtmax and dP/dtmin). […] Coronary perfusion pressure (CPP) was defined as the hydraulic pressure measured at the level of aortic cannulation. LV pressure, CPP and electrocardiogram were continuously recorded on a polygraph recorder (WS-681G, Nihon Kohden) and stored on a PCM data recorder (RD-111T, TEAC) for later analysis.
Data are expressed as mean ±SEM. Serial changes in LVDP, LVEDP, CPP, and dP/dt were analyzed by two-way analysis of variance (ANOVA) followed by the Bonferroni/Dunn test, unless otherwise specified. Comparisons among groups with respect to the hemodynamic parameters at baseline and the ratio of released CK to ventricular weight were analyzed by one-way ANOVA followed by the Bonferroni/Dunn test. […]

For the compound `CC(=O)CCC=C(C)CCC=C(C)CCC=C(C)CCC=C(C)C` [GGA, 6, 10, 14, 18-tetramethyl-5,9, 13, 17-nonadecatetraen-2-one], the “PKC isoforms α, β, γ and ε in cytosolic and particulate fractions” value in the experiment with PKC (α, β, γ and ε) is given as “not influenced”. For the same compound, the “LVDP and dP/dt during reperfusion versus Control Group” value in the experiment with isolated perfused heart [1] (24 h after oral 200 mg/kg, printed 'after about 20-40 minutes of reperfusion', FIG. 5) was “remarkably better”. The “functional recovery (LVDP, dP/dt) versus Control Group” value in the experiment with isolated perfused heart [1] (24 h after oral 200 mg/kg, printed 'after about 60 minutes of reperfusion', FIG. 5) is listed as “no great difference”. Moreover, the “amount of creatine kinase (CK) released during reperfusion versus Control Group” value was “much less” in the experiment on isolated perfused heart [1] (ischemic period 20 or 40 minutes) and “no great difference” in the experiment on isolated perfused heart [1] (ischemic period 60 minutes). In the experiment on isolated perfused heart [2] (30-min reperfusion period after 20 min ischemia, FIG. 12), the “released creatine kinase (CK) relative to ventricular weight” value is “lower”. Besides, in the experiment on isolated perfused heart [2] (20 min no-flow global ischemia, 30 min reperfusion, FIG. 11), the “recovery of LVDP, LVEDP and dP/dt on reperfusion versus CNT group” value is reported as “greater”.
